Experimental data as given in ChEMBL document CHEMBL4387728, “Synthetic glycopeptides reveal specific binding pattern and conformational change at O-mannosylated position of α-dystroglycan by POMGnT1 catalyzed GlcNAc modification” (Bioorg Med Chem, 2019).
The source made the active and inactive calls. No cut-off for these calls is given here. Peptide text beside a SMILES is read from it. * marks the point of attachment. GlcNAc(β1-2)αMan = CC(=O)N[C@H]1[C@H](O[C@H]2[C@@H](O)[C@H](O)[C@@H](CO)O[C@@H]2*)O[C@H](CO)[C@@H](O)[C@@H]1O; Hexanoyl(5-oxo) = CC(=O)CCCC(=O)*

Assays:
Homo sapiens [1] = species on record: Homo sapiens; test: Binding affinity to biotin-labeled human recombinant laminin-2 at 10 ug/ml in 5.6 MES buffer by fluorescence microarray method
Canavalia ensiformis = test: Binding affinity to biotin-labeled Canavalia ensiformis agglutinin in pH 7.4 Tris buffer by fluorescence microarray method
[2] = test system: Sambucus racemosa subsp. sieboldiana; test: Binding affinity to biotin-labeled Sambucus sieboldiana agglutinin in pH 7.4 Tris buffer by fluorescence microarray method
Erythrina crista-galli = test: Binding affinity to biotin-labeled Erythrina crista-galli agglutinin in pH 7.4 Tris buffer by fluorescence microarray method
Arachis hypogaea = test: Binding affinity to biotin-labeled Arachis hypogaea agglutinin in pH 7.4 Tris buffer by fluorescence microarray method
Datura stramonium = test: Binding affinity to biotin-labeled Datura stramonium agglutinin in pH 7.4 Tris buffer by fluorescence microarray method
[3] = molecular target: Lactotransferrin (Homo sapiens) (UniProt P02788); test: Binding affinity to biotin-labeled lactoferrin (unknown origin) at 10 ug/ml in pH 5.6 MES buffer by fluorescence microarray method
[4] = molecular target: Laminin subunit alpha-1 (Homo sapiens) (UniProt P25391); test: Binding affinity to biotin-labeled human recombinant laminin-1 at 10 ug/ml in pH 7.4 Tris buffer by fluorescence microarray method
Homo sapiens [5] = species on record: Homo sapiens; test: Binding affinity to biotin-labeled human recombinant laminin-2 at 10 ug/ml in pH 7.4 Tris buffer by fluorescence microarray method
Triticum aestivum = test: Binding affinity to biotin-labeled Wheat germ agglutinin in pH 7.4 Tris buffer by fluorescence microarray method
[6] = molecular target: Lactotransferrin (Homo sapiens) (UniProt P02788); test: Binding affinity to biotin-labeled lactoferrin (unknown origin) at 10 ug/ml in pH 7.4 Tris buffer by fluorescence microarray method
Maackia amurensis = test: Binding affinity to biotin-labeled Maackia amurensis agglutinin in pH 7.4 Tris buffer by fluorescence microarray method
[7] = Binding affinity to biotin-labeled Agaricus bisporus agglutinin in pH 7.4 Tris buffer by fluorescence microarray method
[8] = molecular target: Laminin subunit alpha-1 (Homo sapiens) (UniProt P25391); test: Binding affinity to biotin-labeled human recombinant laminin-1 at 10 ug/ml in pH 5.6 MES buffer by fluorescence microarray method

Lactotransferrin (Homo sapiens), sequence (P02788 whole entry): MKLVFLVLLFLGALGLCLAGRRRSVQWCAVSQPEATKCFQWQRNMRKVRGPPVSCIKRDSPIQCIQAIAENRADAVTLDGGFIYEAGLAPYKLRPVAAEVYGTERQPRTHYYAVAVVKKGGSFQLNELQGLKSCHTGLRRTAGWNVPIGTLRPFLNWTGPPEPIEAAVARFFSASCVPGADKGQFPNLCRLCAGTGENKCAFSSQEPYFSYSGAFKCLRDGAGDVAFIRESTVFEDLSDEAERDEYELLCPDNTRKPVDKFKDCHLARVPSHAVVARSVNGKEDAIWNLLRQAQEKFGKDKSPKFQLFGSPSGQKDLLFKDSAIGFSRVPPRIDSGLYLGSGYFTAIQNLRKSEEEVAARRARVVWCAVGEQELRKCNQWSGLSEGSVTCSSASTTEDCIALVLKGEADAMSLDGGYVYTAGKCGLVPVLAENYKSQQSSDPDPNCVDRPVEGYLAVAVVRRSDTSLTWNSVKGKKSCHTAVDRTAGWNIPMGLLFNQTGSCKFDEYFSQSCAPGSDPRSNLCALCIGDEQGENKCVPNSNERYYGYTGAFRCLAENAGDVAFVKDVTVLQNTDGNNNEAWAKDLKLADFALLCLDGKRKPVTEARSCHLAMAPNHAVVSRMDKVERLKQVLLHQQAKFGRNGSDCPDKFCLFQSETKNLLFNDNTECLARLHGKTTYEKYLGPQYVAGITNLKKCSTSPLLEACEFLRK
Laminin subunit alpha-1 (Homo sapiens), sequence (P25391 whole entry): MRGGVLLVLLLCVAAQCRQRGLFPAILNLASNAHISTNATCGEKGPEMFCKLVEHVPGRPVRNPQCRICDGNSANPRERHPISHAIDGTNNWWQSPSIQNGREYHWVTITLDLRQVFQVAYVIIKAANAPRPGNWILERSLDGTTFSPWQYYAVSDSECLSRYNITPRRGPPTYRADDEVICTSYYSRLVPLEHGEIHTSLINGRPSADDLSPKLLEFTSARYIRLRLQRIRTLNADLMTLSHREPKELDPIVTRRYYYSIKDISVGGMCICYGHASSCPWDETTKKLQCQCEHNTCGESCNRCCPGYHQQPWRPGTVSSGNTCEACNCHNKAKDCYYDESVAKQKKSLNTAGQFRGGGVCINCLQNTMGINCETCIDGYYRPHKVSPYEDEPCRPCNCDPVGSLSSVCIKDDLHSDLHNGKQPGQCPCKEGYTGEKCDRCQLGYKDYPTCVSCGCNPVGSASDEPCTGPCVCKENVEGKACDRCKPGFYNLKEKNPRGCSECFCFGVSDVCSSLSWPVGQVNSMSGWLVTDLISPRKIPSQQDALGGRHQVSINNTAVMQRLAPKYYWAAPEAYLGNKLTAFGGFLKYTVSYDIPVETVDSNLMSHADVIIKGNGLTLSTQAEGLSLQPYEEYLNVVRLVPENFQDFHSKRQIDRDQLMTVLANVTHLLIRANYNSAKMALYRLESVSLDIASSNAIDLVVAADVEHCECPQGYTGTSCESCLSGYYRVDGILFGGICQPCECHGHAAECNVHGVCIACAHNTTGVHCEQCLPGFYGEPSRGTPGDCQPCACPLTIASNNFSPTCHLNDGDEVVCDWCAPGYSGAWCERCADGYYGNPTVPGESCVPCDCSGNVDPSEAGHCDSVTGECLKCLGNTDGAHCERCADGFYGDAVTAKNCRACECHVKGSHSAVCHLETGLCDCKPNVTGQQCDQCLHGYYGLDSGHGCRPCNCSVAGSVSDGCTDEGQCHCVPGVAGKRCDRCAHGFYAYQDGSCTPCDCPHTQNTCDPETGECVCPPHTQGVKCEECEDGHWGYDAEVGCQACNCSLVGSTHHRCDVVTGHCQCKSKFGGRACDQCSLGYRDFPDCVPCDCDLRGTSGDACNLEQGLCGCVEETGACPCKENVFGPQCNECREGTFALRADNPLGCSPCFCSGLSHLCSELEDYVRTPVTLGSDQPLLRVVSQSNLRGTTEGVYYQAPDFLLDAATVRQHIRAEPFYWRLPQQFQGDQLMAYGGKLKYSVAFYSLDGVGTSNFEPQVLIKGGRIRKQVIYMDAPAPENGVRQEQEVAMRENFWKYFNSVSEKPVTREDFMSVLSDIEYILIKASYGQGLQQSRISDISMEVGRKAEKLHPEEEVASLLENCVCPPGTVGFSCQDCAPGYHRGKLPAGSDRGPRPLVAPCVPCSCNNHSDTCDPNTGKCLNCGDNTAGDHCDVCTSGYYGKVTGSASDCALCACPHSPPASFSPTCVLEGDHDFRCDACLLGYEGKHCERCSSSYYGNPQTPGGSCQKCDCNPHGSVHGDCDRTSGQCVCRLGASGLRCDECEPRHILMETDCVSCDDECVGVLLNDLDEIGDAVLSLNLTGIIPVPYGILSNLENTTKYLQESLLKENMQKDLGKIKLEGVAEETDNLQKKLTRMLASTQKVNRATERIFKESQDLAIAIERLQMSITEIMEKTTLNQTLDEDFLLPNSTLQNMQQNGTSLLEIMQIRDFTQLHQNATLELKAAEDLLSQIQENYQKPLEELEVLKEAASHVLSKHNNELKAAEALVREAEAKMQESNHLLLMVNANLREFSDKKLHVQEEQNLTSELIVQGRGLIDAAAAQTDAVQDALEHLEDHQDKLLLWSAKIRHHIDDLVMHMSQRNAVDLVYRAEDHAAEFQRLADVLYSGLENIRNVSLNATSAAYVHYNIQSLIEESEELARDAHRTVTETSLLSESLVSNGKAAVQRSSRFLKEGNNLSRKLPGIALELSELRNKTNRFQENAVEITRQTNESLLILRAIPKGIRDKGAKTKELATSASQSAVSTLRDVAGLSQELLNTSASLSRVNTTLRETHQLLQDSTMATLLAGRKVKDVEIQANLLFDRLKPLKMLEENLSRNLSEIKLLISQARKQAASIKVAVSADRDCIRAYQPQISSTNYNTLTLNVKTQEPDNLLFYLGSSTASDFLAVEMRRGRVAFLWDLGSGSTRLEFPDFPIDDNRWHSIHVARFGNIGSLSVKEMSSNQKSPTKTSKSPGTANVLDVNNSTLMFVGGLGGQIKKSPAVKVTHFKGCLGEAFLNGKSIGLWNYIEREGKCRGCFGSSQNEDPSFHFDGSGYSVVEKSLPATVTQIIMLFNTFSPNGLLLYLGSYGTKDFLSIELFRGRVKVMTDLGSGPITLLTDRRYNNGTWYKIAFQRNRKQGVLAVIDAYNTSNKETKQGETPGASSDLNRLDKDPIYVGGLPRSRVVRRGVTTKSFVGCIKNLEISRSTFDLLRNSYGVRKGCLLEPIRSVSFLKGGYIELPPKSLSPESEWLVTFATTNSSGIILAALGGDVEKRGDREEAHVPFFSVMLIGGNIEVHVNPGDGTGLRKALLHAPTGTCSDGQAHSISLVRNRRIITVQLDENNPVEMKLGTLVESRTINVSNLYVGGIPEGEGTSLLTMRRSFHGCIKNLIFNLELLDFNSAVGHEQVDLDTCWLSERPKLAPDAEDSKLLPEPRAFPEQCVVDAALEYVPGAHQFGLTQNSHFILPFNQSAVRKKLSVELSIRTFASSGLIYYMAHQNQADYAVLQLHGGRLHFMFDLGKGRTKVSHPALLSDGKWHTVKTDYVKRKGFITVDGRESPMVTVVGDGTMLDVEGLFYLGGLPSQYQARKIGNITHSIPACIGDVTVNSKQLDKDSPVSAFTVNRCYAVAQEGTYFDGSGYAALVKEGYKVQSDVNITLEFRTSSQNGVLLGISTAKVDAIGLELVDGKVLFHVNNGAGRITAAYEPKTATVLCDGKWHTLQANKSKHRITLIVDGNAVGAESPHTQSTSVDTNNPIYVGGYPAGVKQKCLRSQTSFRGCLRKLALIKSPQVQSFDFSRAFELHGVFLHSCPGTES

| Structure (SMILES) | Activity (Homo sapiens [1]) | Activity (Canavalia ensiformis) | Activity [2] | Activity (Erythrina crista-galli) | Activity (Arachis hypogaea) | Activity (Datura stramonium) | Activity [3] | Activity [4] | Activity (Homo sapiens [5]) | Activity (Triticum aestivum) | Activity [6] | Activity (Maackia amurensis) | Activity [7] | Activity [8] |
| --- | --- | --- | --- | --- | --- | --- | --- | --- | --- | --- | --- | --- | --- | --- |
| CC[C@H](C)[C@H](NC(=O)[C@H](C)NC(=O)CNC(=O)[C@H](CCCNC(=N)N)NC(=O)[C@@H](NC(=O)CCCC(C)=O)[C@@H](C)O)C(=O)N[C@H](C(=O)N[C@@H](CCC(N)=O)C(=O)N[C@H](C(=O)N1CCC[C@H]1C(=O)N[C@H](C(=O)N[C@@H](CC(C)C)C(=O)NCC(=O)N1CCC[C@H]1C(=O)N[C@H](C(=O)N[C@@H](CCC(N)=O)C(=O)N1CCC[C@H]1C(=O)N[C@H](C(=O)N[C@@H](CCCNC(=N)N)C(=O)N[C@H](C(N)=O)C(C)C)[C@@H](C)O[C@H]1O[C@H](CO)[C@@H](O)[C@H](O)[C@@H]1O[C@@H]1O[C@H](CO)[C@@H](O[C@@H]2O[C@H](CO)[C@H](O)[C@H](O[C@]3(C(=O)O)C[C@H](O)[C@@H](NC(C)=O)[C@H]([C@H](O)[C@H](O)CO)O3)[C@H]2O)[C@H](O)[C@H]1NC(C)=O)[C@@H](C)CC)[C@@H](C)O[C@H]1O[C@H](CO)[C@@H](O)[C@H](O)[C@@H]1O[C@@H]1O[C@H](CO)[C@@H](O[C@@H]2O[C@H](CO)[C@H](O)[C@H](O[C@]3(C(=O)O)C[C@H](O)[C@@H](NC(C)=O)[C@H]([C@H](O)[C@H](O)CO)O3)[C@H]2O)[C@H](O)[C@H]1NC(C)=O)[C@@H](C)O[C@H]1O[C@H](CO)[C@@H](O)[C@H](O)[C@@H]1O[C@@H]1O[C@H](CO)[C@@H](O[C@@H]2O[C@H](CO)[C@H](O)[C@H](O[C@]3(C(=O)O)C[C@H](O)[C@@H](NC(C)=O)[C@H]([C@H](O)[C@H](O)CO)O3)[C@H]2O)[C@H](O)[C@H]1NC(C)=O)[C@@H](C)CC | Active | Active | Active | Active | Active | inactive | Active | Active | inactive | Active | inactive | inactive | Active | Active |
| CC[C@H](C)[C@H](NC(=O)[C@H](C)NC(=O)CNC(=O)[C@H](CCCNC(=N)N)NC(=O)[C@@H](NC(=O)CCCC(C)=O)[C@@H](C)O)C(=O)N[C@H](C(=O)N[C@@H](CCC(N)=O)C(=O)N[C@H](C(=O)N1CCC[C@H]1C(=O)N[C@H](C(=O)N[C@@H](CC(C)C)C(=O)NCC(=O)N1CCC[C@H]1C(=O)N[C@H](C(=O)N[C@@H](CCC(N)=O)C(=O)N1CCC[C@H]1C(=O)N[C@H](C(=O)N[C@@H](CCCNC(=N)N)C(=O)N[C@H](C(N)=O)C(C)C)[C@@H](C)O[C@H]1O[C@H](CO)[C@@H](O)[C@H](O)[C@@H]1O[C@@H]1O[C@H](CO)[C@@H](O)[C@H](O)[C@H]1NC(C)=O)[C@@H](C)CC)[C@@H](C)O[C@H]1O[C@H](CO)[C@@H](O)[C@H](O)[C@@H]1O[C@@H]1O[C@H](CO)[C@@H](O)[C@H](O)[C@H]1NC(C)=O)[C@@H](C)O[C@H]1O[C@H](CO)[C@@H](O)[C@H](O)[C@@H]1O[C@@H]1O[C@H](CO)[C@@H](O)[C@H](O)[C@H]1NC(C)=O)[C@@H](C)CC ({Hexanoyl(5-oxo)}-TRGAIIQT(GlcNAc(β1-2)αMan)PT(GlcNAc(β1-2)αMan)LGPIQPT(GlcNAc(β1-2)αMan)RV-NH2) | Active | Active | Active | Active | Active | inactive | Active | Active | inactive | Active | inactive | inactive | Active | Active |
| CC[C@H](C)[C@H](NC(=O)[C@H](C)NC(=O)CNC(=O)[C@H](CCCNC(=N)N)NC(=O)[C@@H](NC(=O)CCCC(C)=O)[C@@H](C)O)C(=O)N[C@H](C(=O)N[C@@H](CCC(N)=O)C(=O)N[C@H](C(=O)N1CCC[C@H]1C(=O)N[C@H](C(=O)N[C@@H](CC(C)C)C(=O)NCC(=O)N1CCC[C@H]1C(=O)N[C@H](C(=O)N[C@@H](CCC(N)=O)C(=O)N1CCC[C@H]1C(=O)N[C@H](C(=O)N[C@@H](CCCNC(=N)N)C(=O)N[C@H](C(N)=O)C(C)C)[C@@H](C)O)[C@@H](C)CC)[C@@H](C)O)[C@@H](C)O[C@H]1O[C@H](CO)[C@@H](O)[C@H](O)[C@@H]1O[C@@H]1O[C@H](CO)[C@@H](O)[C@H](O)[C@H]1NC(C)=O)[C@@H](C)CC ({Hexanoyl(5-oxo)}-TRGAIIQT(GlcNAc(β1-2)αMan)PTLGPIQPTRV-NH2) | Active | Active | Active | Active | Active | inactive | Active | Active | inactive | Active | inactive | inactive | Active | Active |

The next lines start with the values.

| Activity (Homo sapiens [1]) | Activity (Canavalia ensiformis) | Activity [2] | Activity (Erythrina crista-galli) | Activity (Arachis hypogaea) | Activity (Datura stramonium) | Activity [3] | Activity [4] | Activity (Homo sapiens [5]) | Activity (Triticum aestivum) | Activity [6] | Activity (Maackia amurensis) | Activity [7] | Activity [8] | Structure (SMILES) |
| --- | --- | --- | --- | --- | --- | --- | --- | --- | --- | --- | --- | --- | --- | --- |
| Active | Active | Active | Active | Active | inactive | Active | Active | inactive | Active | inactive | inactive | Active | Active | CC[C@H](C)[C@H](NC(=O)[C@H](C)NC(=O)CNC(=O)[C@H](CCCNC(=N)N)NC(=O)[C@@H](NC(=O)CCCC(C)=O)[C@@H](C)O)C(=O)N[C@H](C(=O)N[C@@H](CCC(N)=O)C(=O)N[C@H](C(=O)N1CCC[C@H]1C(=O)N[C@H](C(=O)N[C@@H](CC(C)C)C(=O)NCC(=O)N1CCC[C@H]1C(=O)N[C@H](C(=O)N[C@@H](CCC(N)=O)C(=O)N1CCC[C@H]1C(=O)N[C@H](C(=O)N[C@@H](CCCNC(=N)N)C(=O)N[C@H](C(N)=O)C(C)C)[C@@H](C)O)[C@@H](C)CC)[C@@H](C)O[C@H]1O[C@H](CO)[C@@H](O)[C@H](O)[C@@H]1O[C@@H]1O[C@H](CO)[C@@H](O)[C@H](O)[C@H]1NC(C)=O)[C@@H](C)O[C@H]1O[C@H](CO)[C@@H](O)[C@H](O)[C@@H]1O[C@@H]1O[C@H](CO)[C@@H](O)[C@H](O)[C@H]1NC(C)=O)[C@@H](C)CC ({Hexanoyl(5-oxo)}-TRGAIIQT(GlcNAc(β1-2)αMan)PT(GlcNAc(β1-2)αMan)LGPIQPTRV-NH2) |
| Active | Active | Active | Active | Active | inactive | Active | Active | inactive | Active | inactive | inactive | Active | Active | CC[C@H](C)[C@H](NC(=O)[C@H](C)NC(=O)CNC(=O)[C@H](CCCNC(=N)N)NC(=O)[C@@H](NC(=O)CCCC(C)=O)[C@@H](C)O)C(=O)N[C@H](C(=O)N[C@@H](CCC(N)=O)C(=O)N[C@H](C(=O)N1CCC[C@H]1C(=O)N[C@H](C(=O)N[C@@H](CC(C)C)C(=O)NCC(=O)N1CCC[C@H]1C(=O)N[C@H](C(=O)N[C@@H](CCC(N)=O)C(=O)N1CCC[C@H]1C(=O)N[C@H](C(=O)N[C@@H](CCCNC(=N)N)C(=O)N[C@H](C(N)=O)C(C)C)[C@@H](C)O[C@H]1O[C@H](CO)[C@@H](O)[C@H](O)[C@@H]1O[C@@H]1O[C@H](CO)[C@@H](O)[C@H](O)[C@H]1NC(C)=O)[C@@H](C)CC)[C@@H](C)O)[C@@H](C)O[C@H]1O[C@H](CO)[C@@H](O)[C@H](O)[C@@H]1O[C@@H]1O[C@H](CO)[C@@H](O)[C@H](O)[C@H]1NC(C)=O)[C@@H](C)CC ({Hexanoyl(5-oxo)}-TRGAIIQT(GlcNAc(β1-2)αMan)PTLGPIQPT(GlcNAc(β1-2)αMan)RV-NH2) |
